Assay results from patent publication US20240366807A1, “RADIOFLUORINATED AGENTS FOR PET IMAGING SELECTIVELY TARGETING FIBROBLAST ACTIVATION PROTEIN” (Trustees of tufts college, priority 2021, published 2024).
Like-named read-outs stand apart in the source and are kept apart here.

Legend:
recombinant human PREP = recombinant human PREP (Homo sapiens (Human), UniProt P48147); test: In vitro enzyme IC50 assay, PREP; format: biochemical; conditions: read-out: PREP Inhibition (IC50)
From the text: (§1) The peptide libraries XPYSWS-NH2, Ac-XPYSWS-NH2, GXYSWS-NH2, and Ac-GXYSWS-NH2, where X represents all natural amino acids except cysteine were synthesized by the Tufts University Core Facility. The DPPIV enzyme used for the specificity studies was previously purified by our laboratory at Tufts University from human placenta, and the purified human FAP enzyme used for these studies was kindly provided by Syrxx, Inc. For the in vitro IC50 determination assays, recombinant human DPPIV, DPP9, FAP, and PREP were purchased from R&D Systems, and DPP8 was from Biomol International. Buffer systems used were A (25 mM Tris, pH 8.0), B (50 mM Tris, pH 7.5), C (50 mM Tris, 140 mM NaCl, pH 7.5), D (25 mM Tris, 250 mM NaCl, pH 7.5), and E (20 mM Tris, 20 mM KCl, pH 7.4).
(§2) In Vitro Enzyme IC50 Assays
(§3) Enzymatic activity of DPPIV, DPP8, DPP9, FAP, and PREP was measured at 25° C. on a Molecular Devices M2^e multidetection microtiter plate reader, monitoring the fluorescence at an excitation wavelength of 380 nm and an emission wavelength of 460 nm. The substrate was either H-Gly-Pro-AMC for the DPPIV, DPP8, and DPP9 assays or Z-Gly-Pro-AMC for the FAP and PREP assays.
(§4) A (DPPIV and DPP9), buffer B (DPP8), buffer C (FAP), or buffer D (PREP) and a suitable amount of inhibitor (ranging between 10^−4 and 10^−11M) in a total volume of 210 μL. The final enzyme concentrations were 0.1, 0.8, 0.4, 1.2, and 0.6 nM for DPPIV, DPP8, DPP9,
(§5) FAP, and PREP, respectively. […] Those prepared in pH 2.0 solution were preincubated at 25° C. for 4 h prior to dilution. Immediately prior to the commencement of the experiment, the 100 mM stocks were further diluted to 10^−3M in the appropriate assay buffer, from which 1:10 serial dilutions were prepared. All inhibitors were tested in triplicate.

recombinant human FAP = recombinant human FAP (Homo sapiens (Human), UniProt Q12884); test: In vitro enzyme IC50 assay, FAP; format: biochemical; conditions: for IC50: read-out: FAP Inhibition (IC50)
From the text: as §1, §2, §3, §4, §5

recombinant human FAP, sequence (Q12884 whole entry): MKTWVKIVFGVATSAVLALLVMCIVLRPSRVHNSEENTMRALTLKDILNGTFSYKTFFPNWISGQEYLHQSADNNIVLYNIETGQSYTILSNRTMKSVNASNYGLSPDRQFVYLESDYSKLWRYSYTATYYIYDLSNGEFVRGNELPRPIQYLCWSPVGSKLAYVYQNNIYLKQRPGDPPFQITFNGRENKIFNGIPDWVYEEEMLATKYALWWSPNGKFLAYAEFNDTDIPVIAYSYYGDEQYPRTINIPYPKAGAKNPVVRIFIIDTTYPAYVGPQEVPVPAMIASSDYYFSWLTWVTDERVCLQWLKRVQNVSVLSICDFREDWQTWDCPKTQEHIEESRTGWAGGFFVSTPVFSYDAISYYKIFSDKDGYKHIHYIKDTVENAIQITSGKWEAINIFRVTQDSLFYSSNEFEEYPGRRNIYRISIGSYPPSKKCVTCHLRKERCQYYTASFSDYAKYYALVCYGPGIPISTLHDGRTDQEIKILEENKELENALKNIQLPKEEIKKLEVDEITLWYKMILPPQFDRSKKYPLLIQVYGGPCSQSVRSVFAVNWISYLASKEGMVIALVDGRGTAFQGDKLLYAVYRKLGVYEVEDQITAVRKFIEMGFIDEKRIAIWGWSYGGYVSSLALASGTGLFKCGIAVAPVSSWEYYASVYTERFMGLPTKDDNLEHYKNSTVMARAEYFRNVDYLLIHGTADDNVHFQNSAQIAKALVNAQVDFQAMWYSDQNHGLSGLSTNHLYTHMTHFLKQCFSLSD
recombinant human PREP, sequence (P48147 whole entry): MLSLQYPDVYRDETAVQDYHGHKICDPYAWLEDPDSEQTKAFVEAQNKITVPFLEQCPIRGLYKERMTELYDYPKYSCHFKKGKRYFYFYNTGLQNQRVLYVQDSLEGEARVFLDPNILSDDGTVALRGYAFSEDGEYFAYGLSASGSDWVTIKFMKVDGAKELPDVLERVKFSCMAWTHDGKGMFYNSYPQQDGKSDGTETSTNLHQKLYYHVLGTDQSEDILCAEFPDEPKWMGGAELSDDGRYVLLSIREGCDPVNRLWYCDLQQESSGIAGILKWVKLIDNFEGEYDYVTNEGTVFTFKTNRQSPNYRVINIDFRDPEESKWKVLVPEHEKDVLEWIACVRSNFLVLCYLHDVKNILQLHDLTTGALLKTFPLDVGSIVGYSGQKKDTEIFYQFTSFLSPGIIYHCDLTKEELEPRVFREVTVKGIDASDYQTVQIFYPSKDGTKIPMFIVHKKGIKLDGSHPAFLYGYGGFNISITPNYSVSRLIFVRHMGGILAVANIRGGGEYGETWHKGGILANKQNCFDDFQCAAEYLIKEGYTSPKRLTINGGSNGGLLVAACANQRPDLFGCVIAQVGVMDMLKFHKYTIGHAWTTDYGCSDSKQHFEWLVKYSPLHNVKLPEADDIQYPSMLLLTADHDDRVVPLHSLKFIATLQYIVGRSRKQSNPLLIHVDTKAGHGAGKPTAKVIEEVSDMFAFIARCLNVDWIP

SMILES	IC50 (recombinant human PREP; pH2.0)	IC50 (recombinant human PREP; pH7.5)	FAP Selectivity, IC50(PREP)/IC50(FAP) (recombinant human FAP; pH2.0)	IC50 (recombinant human FAP; pH2.0)	FAP Selectivity, IC50(PREP)/IC50(FAP) (recombinant human FAP; pH7.5)	IC50 (recombinant human FAP; pH7.5)
C[C@@H](NC(=O)c1ccc(F)cc1)C(=O)N1CCC[C@H]1B(O)O	4100 nM	5700 nM	19	220 nM	22	260 nM
C[C@@H](NC(=O)c1cc(F)ncc1F)C(=O)N1CCC[C@H]1B(O)O	2000 nM	2300 nM	14	140 nM	16	140 nM
C[C@@H](NC(=O)c1ccc(OCF)cc1)C(=O)N1CCC[C@H]1B(O)O	2000 nM	1900 nM	8.3	240 nM	7.9	240 nM
C[C@@H](NC(=O)c1cc(F)nc(F)c1)C(=O)N1CCC[C@H]1B(O)O	2300 nM	2500 nM	23	100 nM	19	130 nM
C[C@@H](NC(=O)c1ccc(F)cc1F)C(=O)N1CCC[C@H]1B(O)O	790 nM	1400 nM	1.1	690 nM	3.6	390 nM
C[C@@H](NC(=O)c1ccnc(F)c1F)C(=O)N1CCC[C@H]1B(O)O	1900 nM	2200 nM	15	130 nM	15	150 nM
C[C@@H](NC(=O)c1cccc(OCF)c1)C(=O)N1CCC[C@H]1B(O)O	48 nM	53 nM	0.37	130 nM	0.41	130 nM
C[C@@H](NC(=O)c1ccccc1F)C(=O)N1CCC[C@H]1B(O)O	2200 nM	3100 nM	5.6	390 nM	4.8	650 nM
C[C@@H](NC(=O)c1c(F)c(F)c(F)c(F)c1F)C(=O)N1CCC[C@H]1B(O)O	1200 nM	1500 nM	2.7	450 nM	4.5	330 nM
